# Results reported in patent US10073084B2, “Predicting allergic reactions” (priority 2010, dated 2018).
# “Also recorded” adds a separate entry of the source. Where two headings read alike, the source gives them in different places.
# Key:
# [1] = from publicly available www.sens-it-iv website; cited from earlier work
# [2] = tested on: skin biopsy from the same donor; assay: Skin explant assay: histological damage grade, compound-treated DC + autologous T cells + autologous skin; settings: for Grade I (number of skin explants with this histological grade): Grade I = negative; for Total positive: positive (Grade II-IV) explants / explants tested; for Skin Explant Result (grade observed): Table 3
# IFN-γ = IFN-γ levels in supernatant of drug treated FastDC co-cultured with autologous cells (FACs); type: cell-based, human; settings: for levels of IFN-γ (in words): FIG. 9
# [3] = tested on: skin biopsy from the same donor
# autologous T cells [4] = assay: Modified T cell proliferation assay ([3H] thymidine), drug treated FastDC + autologous T cells; type: cell-based, human
# CD86, CD83 and HLA-DR = assay: Flow cytometric analysis of surface markers on treated monocyte-derived dendritic cells; type: cell-based, human; settings: after 24 hours of treatment, non-sensitizers compared with control cells
# [5] = tested on: cAMP-responsive element modulator (CREM); assay: Real-time RT-PCR gene expression in treated dendritic cells: CREM; type: cell-based, human; settings: 3, 6, 11 and 24 h, single donor, FIG. 6
# autologous T cells [6] = assay: T cell proliferation assay ([3H]-Thymidine), treated DC with autologous T cells (Example 3); type: cell-based, human
# allogeneic T cells = assay: T cell proliferation assay ([3H]-Thymidine), treated DC with allogeneic T cells (Example 3); type: cell-based, human; settings: FIG. 7C
# [7] = tested on: chemokine (C-C motif) receptor 2 (CCR2); assay: Real-time RT-PCR gene expression in treated dendritic cells: CCR2; type: cell-based, human; settings: 3, 6, 11 and 24 h, single donor, FIG. 6
# [8] = Table 2, concentrations of Table 1
# [9] = Table 2, concentrations of Table 1, positive grade
# [10] = FIG. 8 / FIG. 10, FastDC treated 24 hours, five days co-culture
molecule,measurement,setting,value
"Sc1nc2ccccc2s1 [2Mercp, 2-mercaptobenzothiazole]",LLNA Class,[1],Moderate
same,Grade I (number of skin explants with this histological grade),[2]; [8],1
same,Grade II (number of skin explants with this histological grade),[2]; [9],1
same,Grade III (number of skin explants with this histological grade),[2]; [9],2
same,Total positive,[2]; Table 2,3/4
same,IFNγ Mean,IFN-γ; Table 3,628.81
"CC1(C)S[C@@H]2[C@H](NC(=O)[C@H](N)c3ccc(O)cc3)C(=O)N2[C@H]1C(=O)O [Amoxo, Amoxicillin]",Grade IV (number of skin explants with this histological grade),[3],1
same,Total positive,[3],4/5
"CCOC(=O)c1ccc(N)cc1 [Bz, Benzocaine]",Total positive,[2]; Table 2,1/1
"O=CC=Cc1ccccc1 [CINN, Cinnamaldehyde]",Grade I (number of skin explants with this histological grade),"[3]; human, 3 days",2
same,Total positive,"[3]; human, 3 days",2/4
same,IFNγ Mean,IFN-γ; Table 3,227.76
"C[S+](C)[O-] [DMSO, Dimethyl sulfoxide]",Grade I (number of skin explants with this histological grade),[2]; [8],2
same,Grade II (number of skin explants with this histological grade),[2]; [9],1
same,Total positive,[2]; Table 2,1/3
same,Skin Explant Result (grade observed),[2],Grade I; also recorded: Grade II
same,autologous T cell proliferation (level in words),autologous T cells [4]; [10],low
"CN(C)C=O [DMT, Dimethyl formamide]",Grade I (number of skin explants with this histological grade),[2]; [8],3
same,Total positive,[2]; Table 2,0/3
same,Skin Explant Result (grade observed),[2],Grade I
same,IFNγ Mean,IFN-γ; Table 3,158.59
same,autologous T cell proliferation (level in words),autologous T cells [4]; [10],low
C=CCc1ccc(O)c(OC)c1 [Eugenol],"expression of the markers CD86, CD83 and HLA-DR","CD86, CD83 and HLA-DR",reduced peak of expression
same,Grade IV (number of skin explants with this histological grade),"[3]; human, 3 days",1
same,Total positive,"[3]; human, 3 days",5/5
same,IFNγ Mean,IFN-γ; Table 3,425.66
same,"CREM expression, logarithmic fold change (LFC)",[5],up-regulated until 24 hours when it becomes down-regulated
same,T cell proliferation response versus SDS-treated DC,"autologous T cells [6]; summary statement, T cell source not stated, not reproducible",Two-fold
same,[3H]-Thymidine count relative to SDS and Triton X-100,"autologous T cells [6]; treated DC with autologous T cells, FIG. 7B",two-fold
same,difference in counts per minute (CPM) versus SDS,allogeneic T cells,greater than two-fold
same,"CCR2 expression, logarithmic fold change (LFC)",[7],down-regulated from 3-11 hours and then is up-regulated at 24 hours
"OCC(O)CO [Gly, Glycerol]",Total positive,[2]; Table 2,1/4
same,IFNγ Mean,IFN-γ; Table 3,144.28
same,autologous T cell proliferation (level in words),autologous T cells [4]; [10],low
"CC(C)O [IP, Isopropanol]",Total positive,[2]; Table 2,0/5
same,IFNγ Mean,IFN-γ; Table 3,207.26
same,autologous T cell proliferation (level in words),autologous T cells [4]; [10],low
"Nc1nnc(-c2cccc(Cl)c2Cl)c(N)n1 [L amot, Lamotrigine]",Grade II (number of skin explants with this histological grade),[2]; [9],1
same,Grade III (number of skin explants with this histological grade),[2]; [9],2
same,Grade IV (number of skin explants with this histological grade),[2]; [9],1
same,Total positive,[2]; Table 2,4/4
"N[C@@H](CCC(=O)O)C(=O)O [LGA, Glutamic Acid]",Grade I (number of skin explants with this histological grade),[2]; [8],2
same,Grade II (number of skin explants with this histological grade),[2]; [9],1
same,Total positive,[2]; Table 2,1/3
same,Skin Explant Result (grade observed),[2]; listed as LGA (glutamic Acid),Grade I; also recorded: Grade II
same,IFNγ Mean,IFN-γ; Table 3,48.40
same,autologous T cell proliferation (level in words),autologous T cells [4]; [10],low
"CN(Cc1cnc2nc(N)nc(N)c2n1)c1ccc(C(=O)N[C@@H](CCC(=O)O)C(=O)O)cc1 [MTX, Methotrexate]",Grade I (number of skin explants with this histological grade),[2]; [8],1
same,Total positive,[2]; Table 2,0/1′
same,levels of IFN-γ (in words),IFN-γ,low
same,autologous T cell proliferation (level in words),autologous T cells [4]; [10],low
"CN(C)C(=N)N=C(N)N [Met, Metformin]",Grade I (number of skin explants with this histological grade),[2]; [8],2
same,Total positive,[2]; Table 2,0/2
same,levels of IFN-γ (in words),IFN-γ,low
same,autologous T cell proliferation (level in words),autologous T cells [4]; [10],low
"NC[C@@H]1O[C@H](O[C@H]2[C@@H](O)[C@H](O[C@@H]3[C@@H](O)[C@H](N)C[C@H](N)[C@H]3O[C@H]3O[C@H](CN)[C@@H](O)[C@H](O)[C@H]3N)O[C@@H]2CO)[C@H](N)[C@@H](O)[C@@H]1O [Neo, Neomycin]",Grade I (number of skin explants with this histological grade),[3],1
same,Total positive,[3],4/5
"CCCCCCCCCCCCOS(=O)(=O)[O-].[Na+] [SDS, Sodium Dodecyl Sulfate]","expression of the markers CD86, CD83 and HLA-DR","CD86, CD83 and HLA-DR",increase in expression
same,Total positive,[3]; human,3/6
same,IFNγ Mean,IFN-γ; Table 3,80.33
same,"CREM expression, logarithmic fold change (LFC)",[5],~0
same,autologous T cell proliferation (level in words),autologous T cells [4]; [10],low
same,"CCR2 expression, logarithmic fold change (LFC)",[7],flipping from a down-regulation to an up-regulation
"CCC(C)(C)C(=O)O[C@H]1C[C@@H](C)C=C2C=C[C@H](C)[C@H](CC[C@@H]3C[C@@H](O)CC(=O)O3)[C@H]21 [SimV, Simvastatin]",Grade I (number of skin explants with this histological grade),[2]; [8],2
same,Grade III (number of skin explants with this histological grade),[2]; [9],1
same,Total positive,[2]; Table 2,1/3
"O=S(=O)([O-])[O-].[Zn+2] [ZnSO4, Zinc Sulphate]",Grade I (number of skin explants with this histological grade),[3],2
same,Total positive,[3],2/4
same,LLNA Class,[1],Non sensitiser
same,IFNγ Mean,IFN-γ,13.39
same,autologous T cell proliferation (level in words),autologous T cells [4],low
Penicillin,LLNA Class,[1],Weak
same,Grade II (number of skin explants with this histological grade),[2]; [9],1
same,Grade III (number of skin explants with this histological grade),[2]; [9],3
same,Total positive,[2]; Table 2,4/4
same,Skin Explant Result (grade observed),[2]; listed as Penicillin G,Grade III; also recorded: Grade II
same,IFNγ Mean,IFN-γ; Table 3,549.25
Triton-X-100,"expression of the markers CD86, CD83 and HLA-DR","CD86, CD83 and HLA-DR",increase in expression
same,Grade I (number of skin explants with this histological grade),[3],4
same,Skin Explant Result (grade observed),[3],Grade I
same,Total positive,[3],0/4
same,IFNγ Mean,IFN-γ; Table 3,33.54
same,"CREM expression, logarithmic fold change (LFC)",[5],up-regulated for each time point
same,level of incorporation of [3H]-Thymidine,allogeneic T cells,"approximately 100,000 CPM"
same,autologous T cell proliferation (level in words),autologous T cells [4]; [10],low
same,"CCR2 expression, logarithmic fold change (LFC)",[7],down-regulated after each time period
Tween 20,LLNA Class,[1],Non sensitiser
same,Grade I (number of skin explants with this histological grade),[2]; [8],2
same,Total positive,[2]; Table 2,0/2
same,Skin Explant Result (grade observed),[2],Grade I
same,IFNγ Mean,IFN-γ; Table 3,188.24
same,autologous T cell proliferation (level in words),autologous T cells [4]; [10],low
